Results taken from paper PMC5666424, “Marine-Derived 2-Aminoimidazolone Alkaloids. Leucettamine B-Related Polyandrocarpamines Inhibit Mammalian and Protozoan DYRK & CLK Kinases” (Marine Drugs, 2017).
Where two headings read alike, the source gives them in different places.

Experiments:
CDK1/cyclin B = assay: Protein kinase assay; assay type: biochemical, starfish; settings: 15 μmol/L ATP
CK1δ/ε = assay: Protein kinase assay; assay type: biochemical, porcine; settings: 15 μmol/L ATP
Protocol: CK1δ/ε (porcine brain, native) and LmCK1 (leishmania major, recombinant, expressed in E. coli as HIS fusion proteins) was assayed as described for CDK1 but in buffer C and using 25 μM CKS peptide ([…]pSAYSITA), a CK1-specific substrate.

DYRK1B = DYRK1B (Homo sapiens, UniProt Q9Y463); assay: Protein kinase assay; assay type: biochemical; settings: 15 μmol/L ATP
DYRK1B, sequence (Q9Y463 whole entry): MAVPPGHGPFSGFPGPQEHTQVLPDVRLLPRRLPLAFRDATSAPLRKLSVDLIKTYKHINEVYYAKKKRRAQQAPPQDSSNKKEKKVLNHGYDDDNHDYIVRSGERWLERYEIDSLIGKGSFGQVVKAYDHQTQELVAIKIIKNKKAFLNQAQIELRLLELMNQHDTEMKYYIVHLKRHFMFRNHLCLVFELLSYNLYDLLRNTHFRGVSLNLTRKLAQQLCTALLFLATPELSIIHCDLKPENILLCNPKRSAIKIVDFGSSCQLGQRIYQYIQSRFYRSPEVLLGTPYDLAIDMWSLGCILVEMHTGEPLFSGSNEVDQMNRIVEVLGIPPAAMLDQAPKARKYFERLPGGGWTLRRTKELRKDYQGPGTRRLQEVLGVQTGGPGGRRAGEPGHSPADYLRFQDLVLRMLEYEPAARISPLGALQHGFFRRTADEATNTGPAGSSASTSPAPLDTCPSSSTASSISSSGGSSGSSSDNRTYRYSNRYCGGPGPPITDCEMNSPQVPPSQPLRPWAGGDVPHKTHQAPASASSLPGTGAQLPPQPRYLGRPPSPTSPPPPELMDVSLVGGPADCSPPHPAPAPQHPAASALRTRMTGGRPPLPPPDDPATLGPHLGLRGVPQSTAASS

DYRK2 = target: T1, DYRK2 (Homo sapiens, UniProt Q92630); assay: Protein kinase assay; assay type: biochemical
T1 sequence (Q92630 1-601): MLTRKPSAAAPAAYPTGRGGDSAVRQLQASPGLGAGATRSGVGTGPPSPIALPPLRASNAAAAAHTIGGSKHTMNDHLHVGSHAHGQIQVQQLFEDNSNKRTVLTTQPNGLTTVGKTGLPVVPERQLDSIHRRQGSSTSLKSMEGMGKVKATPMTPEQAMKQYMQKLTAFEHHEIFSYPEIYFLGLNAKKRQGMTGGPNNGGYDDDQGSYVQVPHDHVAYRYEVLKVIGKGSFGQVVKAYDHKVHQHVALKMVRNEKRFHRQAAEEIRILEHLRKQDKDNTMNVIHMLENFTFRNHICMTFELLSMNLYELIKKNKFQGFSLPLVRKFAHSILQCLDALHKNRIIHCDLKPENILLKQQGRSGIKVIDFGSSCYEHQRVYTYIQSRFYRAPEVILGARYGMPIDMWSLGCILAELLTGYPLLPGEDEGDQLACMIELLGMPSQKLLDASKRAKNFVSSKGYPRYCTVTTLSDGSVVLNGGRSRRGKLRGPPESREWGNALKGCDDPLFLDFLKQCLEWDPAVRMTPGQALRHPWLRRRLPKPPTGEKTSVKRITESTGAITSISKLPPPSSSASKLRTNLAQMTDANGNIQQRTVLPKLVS

TgCLK = TgCLK (Toxoplasma gondii, UniProt V4ZJD6); assay: Protein kinase assay; assay type: biochemical
CDK9/cyclin T = CDK9/cyclin T (Homo sapiens, UniProt P50750); assay: Protein kinase assay; settings: IC50 CDK9/cyclin T, 15 μmol/L ATP
CDK9/cyclin T, sequence (P50750 whole entry): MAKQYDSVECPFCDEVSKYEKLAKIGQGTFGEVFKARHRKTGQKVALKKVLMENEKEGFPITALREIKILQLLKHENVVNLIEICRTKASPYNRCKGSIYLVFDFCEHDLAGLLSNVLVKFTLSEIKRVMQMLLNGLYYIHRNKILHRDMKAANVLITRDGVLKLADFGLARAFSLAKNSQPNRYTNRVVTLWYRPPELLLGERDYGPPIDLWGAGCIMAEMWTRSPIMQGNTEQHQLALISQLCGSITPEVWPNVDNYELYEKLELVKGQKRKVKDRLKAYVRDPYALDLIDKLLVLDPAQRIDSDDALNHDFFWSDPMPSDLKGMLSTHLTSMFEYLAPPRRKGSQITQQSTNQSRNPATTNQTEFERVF
CDK9/cyclin T, sequence (O60563 whole entry partner): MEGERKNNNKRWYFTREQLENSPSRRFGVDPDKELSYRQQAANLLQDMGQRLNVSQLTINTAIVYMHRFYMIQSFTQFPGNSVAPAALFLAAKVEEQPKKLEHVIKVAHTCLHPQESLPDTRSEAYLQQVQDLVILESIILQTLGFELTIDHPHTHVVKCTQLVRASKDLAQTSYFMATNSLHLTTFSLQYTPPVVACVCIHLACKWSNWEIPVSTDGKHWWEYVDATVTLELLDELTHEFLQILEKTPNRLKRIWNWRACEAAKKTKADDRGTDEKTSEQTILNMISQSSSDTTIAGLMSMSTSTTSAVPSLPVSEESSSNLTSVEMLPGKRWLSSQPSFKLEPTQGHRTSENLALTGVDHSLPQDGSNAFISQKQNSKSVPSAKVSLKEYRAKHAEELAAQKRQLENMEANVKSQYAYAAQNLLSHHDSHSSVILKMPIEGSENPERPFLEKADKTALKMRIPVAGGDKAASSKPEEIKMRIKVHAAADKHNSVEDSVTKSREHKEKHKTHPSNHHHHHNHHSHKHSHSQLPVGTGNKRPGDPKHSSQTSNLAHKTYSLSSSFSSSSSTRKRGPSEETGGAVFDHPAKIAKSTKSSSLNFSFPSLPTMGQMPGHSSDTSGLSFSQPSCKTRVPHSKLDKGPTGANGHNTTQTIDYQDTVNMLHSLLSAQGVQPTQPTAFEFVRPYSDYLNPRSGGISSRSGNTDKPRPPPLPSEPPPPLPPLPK

CLK1 [1] = target: CLK1 (Mus musculus, UniProt P22518); assay: Protein kinase assay; settings: IC50 CLK1, 15 μmol/L ATP
CLK1 (Mus musculus, UniProt P22518), sequence (P22518 whole entry): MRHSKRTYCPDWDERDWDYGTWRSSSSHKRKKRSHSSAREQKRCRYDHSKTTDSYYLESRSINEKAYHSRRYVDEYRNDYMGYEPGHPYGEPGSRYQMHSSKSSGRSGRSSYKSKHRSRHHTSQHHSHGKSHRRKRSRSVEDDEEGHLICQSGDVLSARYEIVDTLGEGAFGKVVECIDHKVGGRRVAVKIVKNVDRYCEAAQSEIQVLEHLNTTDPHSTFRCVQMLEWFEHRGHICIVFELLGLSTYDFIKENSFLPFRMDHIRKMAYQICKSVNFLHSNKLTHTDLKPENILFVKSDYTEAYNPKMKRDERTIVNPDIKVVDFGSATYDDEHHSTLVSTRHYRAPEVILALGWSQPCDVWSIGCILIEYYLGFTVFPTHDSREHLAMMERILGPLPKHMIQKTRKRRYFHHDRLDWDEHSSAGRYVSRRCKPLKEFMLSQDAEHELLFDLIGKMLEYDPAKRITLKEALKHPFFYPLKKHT

CLK2 = CLK2 (Mus musculus, UniProt O35491); assay: Protein kinase assay; settings: IC50 CLK2, 15 μmol/L ATP
CLK2, sequence (O35491 whole entry): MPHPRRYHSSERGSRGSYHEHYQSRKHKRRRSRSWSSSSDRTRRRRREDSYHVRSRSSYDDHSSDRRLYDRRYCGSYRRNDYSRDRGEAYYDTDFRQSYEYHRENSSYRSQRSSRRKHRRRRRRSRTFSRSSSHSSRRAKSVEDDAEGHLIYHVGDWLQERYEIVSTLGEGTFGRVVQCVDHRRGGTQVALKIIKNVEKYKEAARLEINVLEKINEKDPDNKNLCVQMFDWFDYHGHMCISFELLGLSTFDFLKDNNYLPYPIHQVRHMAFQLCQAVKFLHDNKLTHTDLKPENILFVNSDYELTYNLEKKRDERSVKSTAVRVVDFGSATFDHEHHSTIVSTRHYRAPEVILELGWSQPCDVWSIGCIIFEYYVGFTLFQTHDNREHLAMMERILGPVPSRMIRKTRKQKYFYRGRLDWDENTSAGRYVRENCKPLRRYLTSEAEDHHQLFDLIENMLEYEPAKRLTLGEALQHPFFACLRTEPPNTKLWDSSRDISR

CLK3 = CLK3 (Mus musculus, UniProt O35492); assay: Protein kinase assay; settings: IC50 CLK3, 15 μmol/L ATP
CLK3, sequence (O35492 whole entry): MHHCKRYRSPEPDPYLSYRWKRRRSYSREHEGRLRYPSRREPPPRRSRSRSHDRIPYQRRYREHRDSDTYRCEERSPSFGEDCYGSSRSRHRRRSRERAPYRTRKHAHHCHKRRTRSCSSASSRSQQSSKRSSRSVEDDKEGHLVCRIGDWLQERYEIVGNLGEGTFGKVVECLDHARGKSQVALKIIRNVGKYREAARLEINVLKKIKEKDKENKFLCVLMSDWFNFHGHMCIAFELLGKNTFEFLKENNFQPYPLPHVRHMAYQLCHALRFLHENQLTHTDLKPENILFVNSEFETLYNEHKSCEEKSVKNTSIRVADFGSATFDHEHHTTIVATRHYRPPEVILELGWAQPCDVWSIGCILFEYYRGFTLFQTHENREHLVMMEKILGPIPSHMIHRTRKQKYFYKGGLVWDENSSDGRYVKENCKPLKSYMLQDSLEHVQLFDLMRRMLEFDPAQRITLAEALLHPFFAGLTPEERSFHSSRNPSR

CLK4 = CLK4 (Mus musculus, UniProt O35493); assay: Protein kinase assay; settings: IC50 CLK4, 15 μmol/L ATP
CLK4, sequence (O35493 whole entry): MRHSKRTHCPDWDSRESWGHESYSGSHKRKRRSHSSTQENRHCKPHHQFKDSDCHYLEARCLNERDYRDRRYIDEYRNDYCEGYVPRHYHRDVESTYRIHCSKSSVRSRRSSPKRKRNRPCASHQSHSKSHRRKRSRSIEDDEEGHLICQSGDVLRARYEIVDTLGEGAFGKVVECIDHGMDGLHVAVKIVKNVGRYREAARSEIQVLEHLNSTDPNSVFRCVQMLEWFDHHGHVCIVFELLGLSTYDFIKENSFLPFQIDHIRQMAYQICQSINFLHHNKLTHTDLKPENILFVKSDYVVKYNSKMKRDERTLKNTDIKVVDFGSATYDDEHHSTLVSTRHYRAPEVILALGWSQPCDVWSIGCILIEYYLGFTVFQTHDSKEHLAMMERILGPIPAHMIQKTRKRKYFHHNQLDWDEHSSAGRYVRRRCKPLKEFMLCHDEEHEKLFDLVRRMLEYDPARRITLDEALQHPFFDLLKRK

[2] = tested on: 27 purified kinases (14 mammalian and 13 unicellular parasites); assay: Battery of 27 purified kinases
ABL1-nonphosphorylated = target: T2, ABL1-nonphosphorylated (Homo sapiens, UniProt P00519); assay: KinomeScan; assay type: binding; settings: 1 μM
T2 construct: purchased DiscoverX (KINOMEscan)
T2 sequence (P00519 whole entry): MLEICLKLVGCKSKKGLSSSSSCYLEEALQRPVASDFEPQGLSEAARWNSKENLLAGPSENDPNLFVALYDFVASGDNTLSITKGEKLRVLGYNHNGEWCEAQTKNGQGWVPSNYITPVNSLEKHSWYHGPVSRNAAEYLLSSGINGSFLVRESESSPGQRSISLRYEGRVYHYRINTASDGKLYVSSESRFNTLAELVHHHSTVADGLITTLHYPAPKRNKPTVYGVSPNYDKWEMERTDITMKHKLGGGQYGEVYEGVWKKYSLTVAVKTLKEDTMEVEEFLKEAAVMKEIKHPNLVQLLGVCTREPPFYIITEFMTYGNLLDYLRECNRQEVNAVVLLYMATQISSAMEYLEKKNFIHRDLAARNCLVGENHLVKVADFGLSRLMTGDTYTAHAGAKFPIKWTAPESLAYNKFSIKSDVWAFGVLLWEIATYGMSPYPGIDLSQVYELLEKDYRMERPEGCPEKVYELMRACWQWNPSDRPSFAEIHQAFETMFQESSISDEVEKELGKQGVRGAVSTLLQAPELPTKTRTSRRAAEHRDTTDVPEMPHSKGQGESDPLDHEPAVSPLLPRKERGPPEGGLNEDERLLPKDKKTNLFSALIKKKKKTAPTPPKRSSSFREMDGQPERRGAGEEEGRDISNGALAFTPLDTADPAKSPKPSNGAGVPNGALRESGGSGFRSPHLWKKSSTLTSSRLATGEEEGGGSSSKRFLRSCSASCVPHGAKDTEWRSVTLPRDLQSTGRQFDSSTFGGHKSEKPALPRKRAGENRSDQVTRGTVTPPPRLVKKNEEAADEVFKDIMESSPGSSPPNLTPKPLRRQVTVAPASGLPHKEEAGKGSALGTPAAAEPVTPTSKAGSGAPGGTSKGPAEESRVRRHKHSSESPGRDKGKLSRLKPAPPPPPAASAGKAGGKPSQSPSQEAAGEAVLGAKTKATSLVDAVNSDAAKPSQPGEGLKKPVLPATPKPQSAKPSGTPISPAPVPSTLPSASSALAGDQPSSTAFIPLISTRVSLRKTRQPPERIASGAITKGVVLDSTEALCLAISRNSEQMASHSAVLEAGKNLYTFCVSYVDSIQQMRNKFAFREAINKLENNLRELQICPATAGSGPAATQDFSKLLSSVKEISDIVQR
Protocol: (§1) Assays were performed essentially as described previously. For most assays, kinase-tagged T7 phage strains were grown in parallel in 24-well blocks in an E. coli host derived from the BL21 strain. E. coli were grown to log-phase and infected with T7 phage from a frozen stock (multiplicity of infection ~0.1) and incubated with shaking at 32 °C until lysis (~90 min). The lysates were centrifuged (6000× g) and filtered (0.2 μm) to remove cell debris. The remaining kinases were produced in HEK-293 cells and subsequently tagged with DNA for qPCR detection. […] The liganded beads were blocked with excess biotin and washed with blocking buffer (SeaBlock (Pierce, ThermoFisher Scientific, Illkirch, France), 1% BSA, 0.05% Tween 20, 1 mM DTT) to remove unbound ligand and to reduce non-specific phage binding. […] An 11-point threefold serial dilution of each test compound was prepared in 100% DMSO at 100× final test concentration which and subsequently diluted to 1× in the assay. All reactions were performed in polystyrene 96-well plates in a final volume of 0.135 mL. […] The kinase concentration in the eluates was measured by qPCR.

AKT2 = target: T3, AKT2 (Homo sapiens, UniProt P31751); assay: KinomeScan; assay type: binding; settings: 1 μM
T3 construct: purchased DiscoverX (KINOMEscan)
Protocol: as §1

EGFR(E746-A750del) = target: T4, EGFR(E746-A750del) (Homo sapiens, UniProt P00533, DEL746-750); assay: KinomeScan; assay type: binding; settings: 1 μM
T4 construct: purchased DiscoverX (KINOMEscan)
Protocol: as §1

FES = target: T5, FES (Homo sapiens, UniProt P07332); assay: KinomeScan; assay type: binding; settings: 1 μM
T5 construct: purchased DiscoverX (KINOMEscan)
Protocol: as §1

FLT3(N841I) = target: T6, FLT3(N841I) (Homo sapiens, UniProt P36888, N841I); assay: KinomeScan; assay type: binding; settings: 1 μM
T6 construct: purchased DiscoverX (KINOMEscan)
Protocol: as §1

HIPK4 = target: T7, HIPK4 (Homo sapiens, UniProt Q8NE63); assay: KinomeScan; assay type: binding; settings: 1 μM
T7 construct: purchased DiscoverX (KINOMEscan)
Protocol: as §1

[3] = target: T8, JAK1(JH2domain-pseudokinase) (Homo sapiens, UniProt P23458); assay: KinomeScan; assay type: binding; settings: 1 μM
T8 construct: JAK1(JH2domain-pseudokinase); purchased DiscoverX (KINOMEscan)
Protocol: as §1

MAP3K4 = target: T9, MAP3K4 (Homo sapiens, UniProt Q9Y6R4); assay: KinomeScan; assay type: binding; settings: 1 μM
T9 construct: purchased DiscoverX (KINOMEscan)
Protocol: as §1

MET(M1250T) = target: T10, MET(M1250T) (Homo sapiens, UniProt P08581, M1250T); assay: KinomeScan; assay type: binding; settings: 1 μM
T10 construct: purchased DiscoverX (KINOMEscan)
Protocol: as §1

MST1R = target: T11, MST1R (Homo sapiens, UniProt Q04912); assay: KinomeScan; assay type: binding; settings: 1 μM
T11 construct: purchased DiscoverX (KINOMEscan)
Protocol: as §1

MYLK2 = target: T12, MYLK2 (Homo sapiens, UniProt Q9H1R3); assay: KinomeScan; assay type: binding; settings: 1 μM
T12 construct: purchased DiscoverX (KINOMEscan)
Protocol: as §1

TAK1 = target: T13, TAK1 (Homo sapiens, UniProt O43318); assay: KinomeScan; assay type: binding; settings: 1 μM
T13 construct: purchased DiscoverX (KINOMEscan)
Protocol: as §1

YSK4 = target: T14, YSK4 (Homo sapiens, UniProt Q56UN5); assay: KinomeScan; assay type: binding; settings: 1 μM
T14 construct: purchased DiscoverX (KINOMEscan)
Protocol: as §1

CLK1 [4] = target: CLK1 (Homo sapiens, UniProt P49759); assay: KinomeScan; assay type: binding; settings: 1 μM
[5] = 15 μmol/L ATP, read-out: IC50 DYRK2
[6] = 15 μmol/L ATP; read-out: IC50 TgCLK

SMILES | IC50 (CDK1/cyclin B) | IC50 (CK1δ/ε) | IC50 (DYRK1B) | IC50 (DYRK2; [5]) | IC50 (CDK9/cyclin T) | IC50 (CLK1 [1]) | IC50 (CLK2) | IC50 (CLK3) | IC50 (CLK4) | activity in the kinase panel [2] | IC50 (TgCLK; [6]) | further results
CN1C(=N)N(C)/C(=C\c2c[nH]c3ccccc23)C1=O [Aplysinopsine] | > 10000 nM | > 10000 nM | > 10000 nM | > 10000 nM | > 10000 nM | > 10000 nM | > 10000 nM | > 10000 nM | > 10000 nM | essentially inactive | > 10000 nM | –
NC1=N/C(=C\CCNC(=O)c2cc(Br)c(Br)[nH]2)C(=O)N1 [Dispacamide] | > 10000 nM | > 10000 nM | > 10000 nM | > 10000 nM | > 10000 nM | > 10000 nM | > 10000 nM | > 10000 nM | > 10000 nM | essentially inactive | > 10000 nM | –
CN1C(=O)/C(=C/c2ccc3c(c2)OCO3)N=C1N [Leucettamine B] | > 10000 nM | > 10000 nM | – | – | > 10000 nM | 100 nM | 910 nM | 9700 nM | 120 nM | modestly active | – | IC50 (DYRK2; IC50 DYRK2, 15 μmol/L ATP): 490 nM; IC50 (TgCLK; read-out: IC50 TgCLK; 15 μmol/L ATP): 4100 nM
COc1cc(/C=C2\N=C(N)NC2=O)ccc1O [Polyandrocarpamine A] | – | 3300 nM | 430 nM | 420 nM | 930 nM | 1000 nM | 1200 nM | 2600 nM | 320 nM | – | > 10000 nM | Score (ABL1-nonphosphorylated): 90; Score (AKT2): 100; Score (EGFR(E746-A750del)): 100; Score (FES): 96; Score (FLT3(N841I)): 100; Score (HIPK4): 85; Score [3]: 92; Score (MAP3K4): 100; Score (MET(M1250T)): 97; Score (MST1R): 100; Score (MYLK2): 95; Score (TAK1): 100; Score (YSK4): 100; Score (CLK1 [4]): 32

Second part, led by results:

IC50 (CDK1/cyclin B) | IC50 (CK1δ/ε) | IC50 (DYRK1B) | IC50 (DYRK2; [5]) | IC50 (CDK9/cyclin T) | IC50 (CLK1 [1]) | IC50 (CLK2) | IC50 (CLK3) | IC50 (CLK4) | activity in the kinase panel [2] | SMILES | IC50 (TgCLK; [6]) | further results
> 10000 nM | > 10000 nM | 5600 nM | 6200 nM | > 10000 nM | 7200 nM | 6100 nM | > 10000 nM | 3500 nM | essentially inactive | CN1C(=N)N=C(Nc2nc(Cc3ccc4c(c3)OCO4)cn2C)C1=O [Clathridimine] | > 10000 nM | –
> 10000 nM | > 10000 nM | > 10000 nM | 7100 nM | > 10000 nM | 6900 nM | 6000 nM | > 10000 nM | 3900 nM | essentially inactive | CN1C(=O)N=C(Nc2nc(Cc3ccc4c(c3)OCO4)cn2C)C1=O [Clathridine] | > 10000 nM | –
5 nM | 3.7 nM | 3.2 nM | 3.1 nM | 11 nM | 3 nM | 4.1 nM | 5.3 nM | 2.9 nM | – | NC1=NC(=O)/C(=C2\CCNC(=O)c3[nH]c(Br)cc32)N1 [Hymenialdisine, reference compound] | 41 nM | –
> 10000 nM | > 10000 nM | 1200 nM | 760 nM | 5200 nM | – | 4900 nM | 8600 nM | 820 nM | – | NC1=N/C(=C\c2ccc(O)c(O)c2)C(=O)N1 [Polyandrocarpamine B] | > 10000 nM | –
31 nM | 31 nM | 5.8 nM | 21 nM | 200 nM | 22 nM | 7.3 nM | 49 nM | 3.6 nM | – | NC1=NC(=O)/C(=C2\CCNC(=O)c3[nH]cc(Br)c32)N1 [Spongiacidin B] | 480 nM | –
